One data set concerns Klebsiella aerogenes. In words: Activity by conventional hole in plate method on agar. The format is cell-based. The note with it: yellow solid after cellulose chromatography; arbitrary units. The protocol:
300 ml. of 10% Pluronic L81 in soya-bean oil was added to prevent foaming. The fermentation was harvested after 48 hours and clarified by centrifugation. The clarified brew was arbitarily assigned an activity of 340 units/ml when assayed by the conventional hole in plate method on agar seeded with Klebsiella aerogenes.

Data set [1] has as its system gram-positive and gram-negative organisms. Put plainly: Antibacterial activity determined by the microtiter method (general statement). The format is cell-based. The note with it: substantially pure di-sodium salt, certain gram-positive and gram-negative organisms.
Data set [2] relates to β-lactamase producing strains of Staphylococcus aureus and Klebsiella aerogenes. Put plainly: Synergy with β-lactam antibiotics (general statement). The format is cell-based. The note with it: substantially pure di-sodium salt; with ampicillin, amoxycillin and the like; certain bacteria.
A further data set relates to Proteus morganii I580. Put plainly: Antibacterial activity, microtitre method (Table 2). Type of data set: cell-based. The note with it: heavy inoculum. The protocol:
(§1) The antibacterial activity of the material produced as above was determined by the microtitre method using the overnight inoculum of the test organism at 0.2% concentration. The synergistic activity of the di-sodium salt of MM 17880 in combination with ampicillin and with cephaloridine against Klebsiella aerogenes and Staphylococcus aureus Russell are shown in Table 3.
(§2) Microtitre heavy inoculum

Another data set has as its system Streptococcus faecalis I. Described as above. The note with it: heavy inoculum. The format is cell-based. The protocol: as §1, §2
For data set [3], the system named is Streptococcus pyogenes CN10. The data set is described as above. Type of data set: cell-based. The settings on record: heavy inoculum. How it is done:
as §1, §2

Data set [4] is described as follows: Stability of salts and unsalted acid. The settings on record: salts compared with unsalted acid; in solution. The format is physicochemical.

Results on two compounds are retold here after patent publication US4261977A, “Streptomycetal antibiotic” (Beecham Group Limited, priority 1975, dated 1981).

Structures can show the parent of a compound that is named as a salt. Some results are limits rather than exact numbers.

With `CC(=O)NCCSC1=C(C(=O)O)N2C(=O)C(C(C)OS(=O)(=O)O)C2C1` (stereo not shown) [di-sodium salt of MM 17880], in the data set with Klebsiella aerogenes, the activity was 16,000 units/mg. Moreover, the antibacterial activity entry in data set [1] is “good level of antibacterial activity”. For the same compound, in data set [2], the “synergy with β-lactam antibiotics” value is listed as “able to synergyse the anti-bacterial activity of β-lactam antibiotics”.
For orientation: MIC means the smallest concentration in the dilution series that meets the test's criterion for growth inhibition. Regarding `CC(=O)NCCSC1=C(C(=O)O)N2C(=O)C(C(C)OS(=O)(=O)O)C2C1` (stereo not shown) [MM 17880], the figures for the minimum inhibitory concentration (MIC) (in the data set on Proteus morganii I580; in the data set on Streptococcus faecalis I; in data set [3]) were 1.6 µg/mL, 6.2 µg/mL and under 0.04 µg/mL, respectively. The stability entry in data set [4] was “tends to decompose in solution”.
